US12391702B2, “Benzo[5,6][1,4]dioxino[2,3-b]pyridine compounds useful as IRAK4 inhibitors” (BRISTOL-MYERS SQUIBB COMPANY, priority 2020, dated 2025)

target: IRAK4 (Homo sapiens (Human), UniProt Q9NWZ3); experiment: IRAK4 Inhibition Assay; assay type: biochemical; conditions: ATP 500 μM; IRAK4 0.6 nM; 60 min at room temperature
Procedure: The assays were performed in U-bottom 384-well plates. The final assay volume was 30 μL prepared from 15 μL additions of enzyme and substrates (fluoresceinated peptide and ATP) and test compounds in assay buffer (20 mM HEPES pH 7.2, 10 mM MgCl2, 0.015% Brij 35 and 4 mM DTT). The reaction was initiated by the combination of IRAK4 with substrates and test compounds. The reaction mixture was incubated at room temperature for 60 min. and terminated by adding 45 μL of 35 mM EDTA to each sample. The reaction mixture was analyzed on the Caliper LABCHIP® 3000 (Caliper, Hopkinton, MA) by electrophoretic separation of the fluorescent substrate and phosphorylated product. Inhibition data were calculated by comparison to no enzyme control reactions for 100% inhibition and vehicle-only reactions for 0% inhibition. The final concentrations of reagents in the assays are ATP, 500 μM; FL-IPTSPITTTYFFFKKK peptide 1.5 μM; IRAK4, 0.6 nM; and DMSO, 1.6%.

Sequence of IRAK4 (Q9NWZ3 whole entry): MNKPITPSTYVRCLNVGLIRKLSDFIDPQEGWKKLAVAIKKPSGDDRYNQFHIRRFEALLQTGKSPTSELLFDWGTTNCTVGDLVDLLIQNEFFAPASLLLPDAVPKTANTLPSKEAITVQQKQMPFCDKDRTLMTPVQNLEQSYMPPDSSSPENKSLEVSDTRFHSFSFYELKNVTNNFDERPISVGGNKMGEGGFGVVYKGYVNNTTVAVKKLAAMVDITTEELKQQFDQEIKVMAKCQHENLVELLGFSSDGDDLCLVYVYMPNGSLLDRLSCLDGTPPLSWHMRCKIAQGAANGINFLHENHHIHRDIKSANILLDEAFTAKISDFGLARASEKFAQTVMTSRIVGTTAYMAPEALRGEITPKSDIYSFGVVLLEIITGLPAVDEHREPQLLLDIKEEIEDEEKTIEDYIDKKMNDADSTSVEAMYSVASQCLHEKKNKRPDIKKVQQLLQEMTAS

Compound	IC50 [nM]
CC(C)Nc1c(C(=O)N[C@H](C)CCO)cnc2c1Oc1cc(C#N)ccc1O2 [Example 10, (R)-7-cyano-N-(4-hydroxybutan-2-yl)-4-(isopropylamino)benzo[5,6][1,4]dioxino [2,3-b]pyridine-3-carboxamide]	160
CC(C)Nc1c(C(=O)NC2CCCOC2)cnc2c1Oc1cc(C#N)ccc1O2 (centres unmarked) [Example 9, 7-cyano-4-(isopropylamino)-N-(tetrahydro-2H-pyran-3-yl)benzo[5,6][1,4]dioxino [2,3-b]pyridine-3-carboxamide]	92
Cc1cc(CNC(=O)c2cnc3c(c2NC(C)C)Oc2cc(C#N)ccc2O3)on1 [Example 14, 7-cyano-4-(isopropylamino)-N-((3-methylisoxazol-5-yl)methyl)benzo[5,6][1,4]dioxino[2,3-b]pyridine-3-carboxamide]	530
CCOCCNC(=O)c1cnc2c(c1NC(C)C)Oc1cc(C#N)ccc1O2 [Example 4, 7-cyano-N-(2-ethoxyethyl)-4-(isopropylamino)benzo[5,6][1,4]dioxino[2,3-b]pyridine-3-carboxamide]	82
CC(C)Nc1c(C(=O)NCC2(CO)COC2)cnc2c1Oc1cc(C#N)ccc1O2 [Example 18, 7-cyano-N-((3-(hydroxymethyl)oxetan-3-yl)methyl)-4-(isopropylamino)benzo [5,6][1,4]dioxino[2,3-b]pyridine-3-carboxamide]	240
CC(C)Nc1c(C(=O)NCC2(CO)CC2)cnc2c1Oc1cc(C#N)ccc1O2 [Example 11, 7-cyano-N-((1-(hydroxymethyl)cyclopropyl)methyl)-4-(isopropylamino)benzo [5,6][1,4]dioxino[2,3-b]pyridine-3-carboxamide]	440
CC(C)Nc1c(C(=O)NC2CCNCC2)cnc2c1Oc1cc(C#N)ccc1O2 [Example 20, 7-cyano-4-(isopropylamino)-N-(piperidin-4-yl)benzo[5,6][1,4]dioxino[2,3-b]pyridine-3-carboxamide]	85
COCCNC(=O)c1cnc2c(c1NC(C)C)Oc1cc(C#N)ccc1O2 [Example 5, 7-cyano-4-(isopropylamino)-N-(2-methoxyethyl)benzo[5,6][1,4]dioxino[2,3-b]pyridine-3-carboxamide]	150
CC(C)Nc1c(C(=O)NCc2cnco2)cnc2c1Oc1cc(C#N)ccc1O2 [Example 13, 7-cyano-4-(isopropylamino)-N-(oxazol-5-ylmethyl)benzo[5,6][1,4]dioxino[2,3-b]pyridine-3-carboxamide]	180
CC(C)Nc1c(C(=O)NCc2nccs2)cnc2c1Oc1cc(C#N)ccc1O2 [Example 19, 7-cyano-4-(isopropylamino)-N-(thiazol-2-ylmethyl)benzo[5,6][1,4]dioxino[2,3-b]pyridine-3-carboxamide]	170
CC(C)Nc1c(C(=O)NCC(C)(C)CO)cnc2c1Oc1cc(C#N)ccc1O2 [Example 7, 7-cyano-N-(3-hydroxy-2,2-dimethylpropyl)-4-(isopropylamino)benzo[5,6][1,4]dioxino[2,3-b]pyridine-3-carboxamide]	270
CC(C)Nc1c(C(=O)NC(CCO)C2CC2)cnc2c1Oc1cc(C#N)ccc1O2 (centres unmarked) [Example 8, 7-cyano-N-(1-cyclopropyl-3-hydroxypropyl)-4-(isopropylamino)benzo[5,6][1,4]dioxino[2,3-b]pyridine-3-carboxamide]	220
CC(C)Nc1c(C(=O)NCc2nnc[nH]2)cnc2c1Oc1cc(C#N)ccc1O2 [Example 12, N-((4H-1,2,4-triazol-3-yl)methyl)-7-cyano-4-(isopropylamino)benzo[5,6][1,4]dioxino [2,3-b]pyridine-3-carboxamide]	140

Now those with a lower IC50, led by results:

IC50 [nM]	Compound
23	CC(C)CCNC(=O)c1cnc2c(c1NC(C)C)Oc1cc(C#N)ccc1O2 [Example 16, 7-cyano-N-isopentyl-4-(isopropylamino)benzo[5,6][1,4]dioxino[2,3-b]pyridine-3-carboxamide]
22	CC(C)Nc1c(C(=O)NCCC(C)(C)O)cnc2c1Oc1cc(C#N)ccc1O2 [Example 15, 7-cyano-N-(3-hydroxy-3-methylbutyl)-4-(isopropylamino)benzo[5,6][1,4]dioxino [2,3-b]pyridine-3-carboxamide]
31	CC(C)Nc1c(C(=O)N[C@H]2CC[C@H](O)CC2)cnc2c1Oc1cc(C#N)ccc1O2 [Example 6, 7-cyano-N-((1r,4r)-4-hydroxycyclohexyl)-4-(isopropylamino)benzo[5,6][1,4]dioxino[2,3-b]pyridine-3-carboxamide]
8.5	CC(C)Nc1c(C(=O)NC[C@@H](F)C(C)(C)O)cnc2c1Oc1ccc(C#N)cc1O2 [Example 2, (R)-8-cyano-N-(2-fluoro-3-hydroxy-3-methylbutyl)-4-(isopropylamino)benzo[5,6][1,4]dioxino[2,3-b]pyridine-3-carboxamide]
34	CC(C)Nc1c(C(=O)N[C@H]2CC[C@H](N)CC2)cnc2c1Oc1cc(C#N)ccc1O2 [Example 17, N-((1R,4R)-4-aminocyclohexyl)-7-cyano-4-(isopropylamino)benzo[5,6][1,4]dioxino [2,3-b]pyridine-3-carboxamide]
60	CC(C)Nc1c(C(=O)NC2CCOCC2)cnc2c1Oc1cc(C#N)ccc1O2 [Example 3, 7-cyano-4-(isopropylamino)-N-(tetrahydro-2H-pyran-4-yl)benzo[5,6][1,4]dioxino [2,3-b]pyridine-3-carboxamide]

test system: Human whole blood stimulated with a TLR2 agonist (lipoteichoic acid), IL-6 levels; experiment: IRAK4 Whole Blood Assay; assay type: cell-based; conditions: 10 μg/mL lipoteichoic acid for 5 hours
Procedure: Human whole blood containing the anti-coagulant ACD-A was plated in 384-well plate (25 μL/well) and incubated with compounds for 60 minutes at 37° C. in a 5% CO2 incubator. The blood was stimulated with a TLR2 agonist, 10 μg/mL final concentration of lipoteichoic acid (Invivogen, San Diego, CA) in 25 μL RPMI (Gibco) for 5 hours in a 5% CO2 incubator. At the end of the incubation, plates were centrifuged at 2300 rpm for 5 minutes. Supernatants were harvested and analyzed for IL-6 levels by Flow Cytometry beads assay (BD Biosciences, San Jose, CA).

EC50 [nM]	Compound
1700	CC(C)Nc1c(C(=O)NC[C@@H](F)C(C)(C)O)cnc2c1Oc1ccc(C#N)cc1O2 [Example 2, (R)-8-cyano-N-(2-fluoro-3-hydroxy-3-methylbutyl)-4-(isopropylamino)benzo[5,6][1,4]dioxino[2,3-b]pyridine-3-carboxamide]
